Assay results reported in ChEMBL document CHEMBL4715742, “Design, synthesis and cytotoxic activities of novel 2,5-diketopiperazine derivatives” (Eur J Med Chem, 2016).

How the values were obtained:
[1] = tested on: U-937; test: Cytotoxicity against human U-937 cells assessed as reduction in cell viability measured after 72 hrs by CCK8 assay; type: functional, cell-based; conditions: Homo sapiens, U-937, 72 h; read-out: IC50
[2] = tested on: U-937; test: Induction of apoptosis in human U-937 cells assessed as early apoptotic cells at 2 uM measured after 48 hrs by annexinV/FITC-propidium iodide staining based flow cytometry (reference value: 1.78 to 1.88 %); type: functional
[3] = tested on: U-937; test: Induction of apoptosis in human U-937 cells assessed as viable cells at 1 uM measured after 24 hrs by annexinV/FITC-propidium iodide staining based flow cytometry (reference value: 95 to 95.1 %); type: functional; conditions: read-out: Activity
[4] = tested on: U-937; test: Cytotoxicity against human U-937 cells assessed as cell viability at 0.37 uM measured after 24 hrs by CCK8 assay relative to control; type: functional; conditions: read-out: Activity
[5] = tested on: U-937; test: Induction of apoptosis in human U-937 cells assessed as apoptotic ratio at 0.5 uM measured after 24 hrs by annexinV/FITC-propidium iodide staining based flow cytometry (reference value: 3.7 +/- 0.3 %); type: functional
[6] = tested on: U-937; test: Induction of apoptosis in human U-937 cells assessed as viable cells at 1 uM measured after 48 hrs by annexinV/FITC-propidium iodide staining based flow cytometry (reference value: 93.7 to 94.2 %); type: functional; conditions: read-out: Activity
[7] = tested on: MCF7; test: Cytotoxicity against human MCF7 cells assessed as reduction in cell viability measured after 72 hrs by CCK8 assay; type: functional, cell-based; conditions: Homo sapiens, MCF7, 72 h; read-out: IC50
[8] = tested on: K562; test: Cytotoxicity against human K562 cells assessed as cell viability at 0.37 uM measured after 24 hrs by CCK8 assay relative to control; type: functional; conditions: read-out: Activity
[9] = tested on: K562; test: Cytotoxicity against human K562 cells assessed as cell viability at 3.3 uM measured after 24 hrs by CCK8 assay relative to control; type: functional; conditions: read-out: Activity
[10] = tested on: U-937; test: Induction of apoptosis in human U-937 cells assessed as early apoptotic cells at 1 uM measured after 24 hrs by annexinV/FITC-propidium iodide staining based flow cytometry (reference value: 1.28 to 1.68 %); type: functional
[11] = tested on: U-937; test: Induction of apoptosis in human U-937 cells assessed as early apoptotic cells at 2 uM measured after 24 hrs by annexinV/FITC-propidium iodide staining based flow cytometry (reference value: 1.28 to 1.68 %); type: functional
[12] = tested on: U-937; test: Induction of apoptosis in human U-937 cells assessed as apoptotic ratio at 1 uM measured after 24 hrs by annexinV/FITC-propidium iodide staining based flow cytometry (reference value: 3.7 +/- 0.3 %); type: functional
[13] = tested on: U-937; test: Cytotoxicity against human U-937 cells assessed as cell viability at 0.37 uM measured after 48 hrs by CCK8 assay relative to control; type: functional; conditions: read-out: Activity
[14] = tested on: U-937; test: Cytotoxicity against human U-937 cells assessed as cell viability at 0.37 uM measured after 72 hrs by CCK8 assay relative to control; type: functional; conditions: read-out: Activity
[15] = tested on: U-937; test: Induction of apoptosis in human U-937 cells assessed as viable cells at 2 uM measured after 48 hrs by annexinV/FITC-propidium iodide staining based flow cytometry (reference value: 93.7 to 94.2 %); type: functional; conditions: read-out: Activity
[16] = tested on: U-937; test: Induction of apoptosis in human U-937 cells assessed as late apoptotic cells at 1 uM measured after 48 hrs by annexinV/FITC-propidium iodide staining based flow cytometry (reference value: 3.27 to 3.41 %); type: functional
[17] = tested on: HT-29; test: Cytotoxicity against human HT-29 cells assessed as reduction in cell viability measured after 72 hrs by CCK8 assay; type: functional, cell-based; conditions: Homo sapiens, HT-29, 72 h; read-out: IC50
[18] = tested on: U-937; test: Induction of apoptosis in human U-937 cells assessed as late apoptotic cells at 1 uM measured after 24 hrs by annexinV/FITC-propidium iodide staining based flow cytometry (reference value: 2.18 to 2.22 %); type: functional
[19] = tested on: K562; test: Cytotoxicity against human K562 cells assessed as cell viability at 1.1 uM measured after 24 hrs by CCK8 assay relative to control; type: functional; conditions: read-out: Activity
[20] = tested on: U-937; test: Induction of apoptosis in human U-937 cells assessed as late apoptotic cells at 0.5 uM measured after 48 hrs by annexinV/FITC-propidium iodide staining based flow cytometry (reference value: 3.27 to 3.41 %); type: functional
[21] = tested on: DU-145; test: Cytotoxicity against human DU-145 cells assessed as reduction in cell viability measured after 72 hrs by CCK8 assay; type: functional, cell-based; conditions: Homo sapiens, DU-145, 72 h; read-out: IC50
[22] = tested on: K562; test: Cytotoxicity against human K562 cells assessed as cell viability at 0.37 uM measured after 48 hrs by CCK8 assay relative to control; type: functional; conditions: read-out: Activity
[23] = tested on: K562; test: Cytotoxicity against human K562 cells assessed as reduction in cell viability at 0.37 to 3.3 uM by CCK8 assay; type: functional, cell-based; conditions: dose 0.37-3.3 µM, time 24-72 hrs, TDE = time-dependent effect

C=CCn1c(=O)/c(=C/CCCC)[nH]c(=O)/c1=C/c1ccc(OC)cc1
IC50 [1]: 360 nM
Activity [2]: 9.76%
viability at 1 µM [3]: 82.6%
viability at 0.37 µM [4]: 70.5%
Activity [5]: 10.4%
viability at 1 µM [6]: 73.1%
IC50 [7]: 1900 nM
viability at 0.37 µM [8]: 87.8%
viability at 3.3 µM [9]: 31%
Activity [10]: 7.63%
Activity [11]: 9.66%
Activity [12]: 16%
viability at 0.37 µM [13]: 74.9%
viability at 0.37 µM [14]: 58.7%
viability at 2 µM [15]: 52.7%
Activity [16]: 14.5%
IC50 [17]: 1200 nM
Activity [18]: 8.23%
viability at 1.1 µM [19]: 50%
Activity [20]: 8.32%
IC50 [21]: 1700 nM
viability at 0.37 µM [22]: 90.9%
Activity [23]: Tde
